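Cells were grown in 96-well plates and exposed to each compound for 48 hours at five concentrations; endpoints were interpolated linearly between bracketing concentrations, or set to the highest concentration if not reached. Abbreviation: GI50, concentration required for 50% inhibition of growth. Definition used: TGI = concentration required for complete inhibition of growth.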
Columns and labels:
Test in all cases: NCI-60 cell line screen, 48 h
NCI-H460 lung = tested on: NCI-H460 lung
OVCAR-4 ovarian = tested on: OVCAR-4 ovarian
BT-549 breast = tested on: BT-549 breast
UO-31 renal = tested on: UO-31 renal
SR leukemia = tested on: SR leukemia
DU-145 prostate = tested on: DU-145 prostate
TK-10 renal = tested on: TK-10 renal
COLO 205 colon = tested on: COLO 205 colon
IGROV1 ovarian = tested on: IGROV1 ovarian
SK-MEL-5 melanoma = tested on: SK-MEL-5 melanoma
CAKI-1 renal = tested on: CAKI-1 renal
NCI-H522 lung = tested on: NCI-H522 lung
MDA-MB-231 breast = tested on: MDA-MB-231 breast
ACHN renal = tested on: ACHN renal
OVCAR-5 ovarian = tested on: OVCAR-5 ovarian
786-0 renal = tested on: 786-0 renal
SF-268 CNS = tested on: SF-268 CNS
SW-620 colon = tested on: SW-620 colon
A549 NSCLC = tested on: A549 NSCLC
SF-539 CNS = tested on: SF-539 CNS
UACC-62 melanoma = tested on: UACC-62 melanoma
SF-295 CNS = tested on: SF-295 CNS
CCRF-CEM leukemia = tested on: CCRF-CEM leukemia
HOP-62 NSCLC = tested on: HOP-62 NSCLC
LOX IMVI melanoma = tested on: LOX IMVI melanoma
HS 578T breast = tested on: HS 578T breast
OVCAR-3 ovarian = tested on: OVCAR-3 ovarian
UACC-257 melanoma = tested on: UACC-257 melanoma
T-47D breast = tested on: T-47D breast
NCI/ADR-RES ovarian = tested on: NCI/ADR-RES ovarian
U251 CNS = tested on: U251 CNS
SN12C renal = tested on: SN12C renal
NCI-H226 lung = tested on: NCI-H226 lung
SK-MEL-28 melanoma = tested on: SK-MEL-28 melanoma
MDA-MB-435 = tested on: MDA-MB-435
K-562 leukemia = tested on: K-562 leukemia
SNB-75 CNS = tested on: SNB-75 CNS
MOLT-4 leukemia = tested on: MOLT-4 leukemia
HOP-92 NSCLC = tested on: HOP-92 NSCLC
SNB-19 CNS = tested on: SNB-19 CNS
HCC-2998 colon = tested on: HCC-2998 colon
EKVX NSCLC = tested on: EKVX NSCLC
KM12 colon = tested on: KM12 colon
HL-60(TB) leukemia = tested on: HL-60(TB) leukemia
RPMI-8226 leukemia = tested on: RPMI-8226 leukemia
RXF 393 renal = tested on: RXF 393 renal
MCF7 breast = tested on: MCF7 breast
HCT-116 colon = tested on: HCT-116 colon
SK-OV-3 ovarian = tested on: SK-OV-3 ovarian
HT29 colon = tested on: HT29 colon
MALME-3M melanoma = tested on: MALME-3M melanoma
OVCAR-8 ovarian = tested on: OVCAR-8 ovarian
A498 renal = tested on: A498 renal
HCT-15 colon = tested on: HCT-15 colon
M14 melanoma = tested on: M14 melanoma
SK-MEL-2 melanoma = tested on: SK-MEL-2 melanoma
PC-3 prostate = tested on: PC-3 prostate
NCI-H23 lung = tested on: NCI-H23 lung

## CCOP(=O)(OCC)OC[C@]12CC[C@@H](C)[C@H](C)C1C1=CC[C@@H]3[C@@]4(C)CCCNC(C)(C)[C@@H]4CC[C@@]3(C)[C@]1(C)CC2 (some centres not stated)
NCI-H460 lung
  GI50: 1830 nM
  TGI: 3460 nM
OVCAR-4 ovarian
  GI50: 2270 nM
  TGI: 6130 nM
BT-549 breast
  GI50: 4490 nM
  TGI: 17600 nM
UO-31 renal
  GI50: 1440 nM
  TGI: 2930 nM
SR leukemia
  GI50: 1410 nM
  TGI: 3640 nM
DU-145 prostate
  GI50: 1940 nM
  TGI: 3710 nM
TK-10 renal
  GI50: 3490 nM
  TGI: 12800 nM
COLO 205 colon
  GI50: 2060 nM
  TGI: 4230 nM
IGROV1 ovarian
  GI50: 1570 nM
  TGI: 3000 nM
SK-MEL-5 melanoma
  GI50: 1690 nM
  TGI: 3110 nM
CAKI-1 renal
  GI50: 1440 nM
  TGI: 2790 nM
NCI-H522 lung
  GI50: 1840 nM
  TGI: 3910 nM
MDA-MB-231 breast
  GI50: 1700 nM
  TGI: 3190 nM
ACHN renal
  GI50: 1720 nM
  TGI: 3110 nM
OVCAR-5 ovarian
  GI50: 1680 nM
  TGI: 3090 nM
786-0 renal
  GI50: 1510 nM
  TGI: 2980 nM
SF-268 CNS
  GI50: 2510 nM
  TGI: 9240 nM
SW-620 colon
  GI50: 1820 nM
  TGI: 3450 nM
A549 NSCLC
  GI50: 1780 nM
  TGI: 3540 nM
SF-539 CNS
  GI50: 1630 nM
  TGI: 3040 nM
UACC-62 melanoma
  GI50: 1550 nM
  TGI: 3110 nM
SF-295 CNS
  GI50: 1780 nM
  TGI: 3340 nM
CCRF-CEM leukemia
  GI50: 2530 nM
  TGI: 8140 nM
HOP-62 NSCLC
  GI50: 1950 nM
  TGI: 3930 nM
LOX IMVI melanoma
  GI50: 1210 nM
  TGI: 2560 nM
HS 578T breast
  GI50: 2680 nM
  TGI: 8090 nM
OVCAR-3 ovarian
  GI50: 1720 nM
  TGI: 3330 nM
UACC-257 melanoma
  GI50: 2130 nM
  TGI: 4950 nM
T-47D breast
  GI50: 1600 nM
  TGI: 3780 nM
NCI/ADR-RES ovarian
  GI50: 1790 nM
  TGI: 3390 nM
U251 CNS
  GI50: 1650 nM
  TGI: 3350 nM
SN12C renal
  GI50: 1530 nM
  TGI: 2940 nM
NCI-H226 lung
  GI50: 4980 nM
  TGI: 23300 nM
SK-MEL-28 melanoma
  GI50: 1690 nM
  TGI: 3110 nM
MDA-MB-435
  GI50: 1760 nM
  TGI: 3310 nM
K-562 leukemia
  GI50: 1570 nM
  TGI: 3320 nM
SNB-75 CNS
  GI50: 2830 nM
  TGI: 15600 nM
MOLT-4 leukemia
  GI50: 1520 nM
  TGI: 3510 nM
HOP-92 NSCLC
  GI50: 1510 nM
  TGI: 4510 nM
SNB-19 CNS
  GI50: 1690 nM
  TGI: 3240 nM
HCC-2998 colon
  GI50: 1850 nM
  TGI: 3420 nM
EKVX NSCLC
  GI50: 1530 nM
  TGI: 2960 nM
KM12 colon
  GI50: 1910 nM
  TGI: 3570 nM
HL-60(TB) leukemia
  GI50: 1670 nM
  TGI: 3470 nM
RPMI-8226 leukemia
  GI50: 2200 nM
  TGI: 5700 nM
RXF 393 renal
  GI50: 1310 nM
  TGI: 2690 nM
MCF7 breast
  GI50: 1590 nM
  TGI: 3170 nM
HCT-116 colon
  GI50: 1690 nM
  TGI: 3210 nM
SK-OV-3 ovarian
  GI50: 3270 nM
  TGI: 10600 nM
HT29 colon
  GI50: 1880 nM
  TGI: 4090 nM
MALME-3M melanoma
  GI50: 1650 nM
  TGI: 3120 nM
OVCAR-8 ovarian
  GI50: 1900 nM
  TGI: 3960 nM
A498 renal
  GI50: 5080 nM
  TGI: 21800 nM
HCT-15 colon
  GI50: 1680 nM
  TGI: 3170 nM
M14 melanoma
  GI50: 1740 nM
  TGI: 3320 nM
SK-MEL-2 melanoma
  GI50: 4800 nM
  TGI: 20700 nM
PC-3 prostate
  GI50: 1570 nM
  TGI: 3150 nM

## COc1ccc(-c2oc3cc(O)cc(O)c3c(=O)c2OC)cc1O
NCI-H460 lung
  GI50: 663 nM
  TGI: > 16500 nM
OVCAR-4 ovarian
  GI50: 3160 nM
  TGI: > 16500 nM
BT-549 breast
  GI50: 850 nM
  TGI: > 16500 nM
UO-31 renal
  GI50: 1860 nM
  TGI: > 16500 nM
SR leukemia
  GI50: 627 nM
  TGI: > 16500 nM
DU-145 prostate
  GI50: 1100 nM
  TGI: > 16500 nM
TK-10 renal
  GI50: 7750 nM
  TGI: > 16500 nM
COLO 205 colon
  GI50: > 16500 nM
  TGI: > 16500 nM
IGROV1 ovarian
  GI50: 4160 nM
  TGI: > 16500 nM
SK-MEL-5 melanoma
  GI50: 724 nM
  TGI: > 16500 nM
CAKI-1 renal
  GI50: 3260 nM
  TGI: > 16500 nM
NCI-H522 lung
  GI50: 446 nM
  TGI: 1430 nM
MDA-MB-231 breast
  GI50: 1220 nM
  TGI: > 16500 nM
ACHN renal
  GI50: 1250 nM
  TGI: > 16500 nM
OVCAR-5 ovarian
  GI50: 8690 nM
  TGI: > 16500 nM
786-0 renal
  GI50: 4870 nM
  TGI: > 16500 nM
SF-268 CNS
  GI50: 1400 nM
  TGI: > 16500 nM
SW-620 colon
  GI50: 665 nM
  TGI: > 16500 nM
A549 NSCLC
  GI50: 6270 nM
  TGI: > 16500 nM
SF-539 CNS
  GI50: 495 nM
  TGI: 1720 nM
UACC-62 melanoma
  GI50: 880 nM
  TGI: > 16500 nM
SF-295 CNS
  GI50: 2300 nM
  TGI: 8660 nM
CCRF-CEM leukemia
  GI50: 853 nM
  TGI: > 16500 nM
HOP-62 NSCLC
  GI50: 814 nM
  TGI: > 16500 nM
LOX IMVI melanoma
  GI50: 1020 nM
  TGI: > 16500 nM
HS 578T breast
  GI50: 762 nM
  TGI: > 16500 nM
OVCAR-3 ovarian
  GI50: 490 nM
  TGI: 2620 nM
UACC-257 melanoma
  GI50: > 16500 nM
  TGI: > 16500 nM
NCI/ADR-RES ovarian
  GI50: 583 nM
  TGI: 6840 nM
U251 CNS
  GI50: 631 nM
  TGI: 6050 nM
SN12C renal
  GI50: 4250 nM
  TGI: > 16500 nM
NCI-H226 lung
  GI50: > 16500 nM
  TGI: > 16500 nM
SK-MEL-28 melanoma
  GI50: 1120 nM
  TGI: > 16500 nM
K-562 leukemia
  GI50: 613 nM
  TGI: > 16500 nM
SNB-75 CNS
  GI50: 406 nM
  TGI: 3450 nM
MOLT-4 leukemia
  GI50: 743 nM
  TGI: > 16500 nM
HOP-92 NSCLC
  GI50: 855 nM
  TGI: > 16500 nM
SNB-19 CNS
  GI50: 1200 nM
  TGI: > 16500 nM
HCC-2998 colon
  GI50: 4630 nM
  TGI: > 16500 nM
EKVX NSCLC
  GI50: 6420 nM
  TGI: > 16500 nM
HL-60(TB) leukemia
  GI50: 445 nM
  TGI: 1100 nM
RPMI-8226 leukemia
  GI50: 726 nM
  TGI: > 16500 nM
RXF 393 renal
  GI50: 1210 nM
  TGI: 5990 nM
NCI-H23 lung
  GI50: 945 nM
  TGI: > 16500 nM
MCF7 breast
  GI50: 762 nM
  TGI: > 16500 nM
HCT-116 colon
  GI50: 646 nM
  TGI: > 16500 nM
SK-OV-3 ovarian
  GI50: 1520 nM
  TGI: > 16500 nM
HT29 colon
  GI50: 5830 nM
  TGI: > 16500 nM
MALME-3M melanoma
  GI50: > 16500 nM
  TGI: > 16500 nM
OVCAR-8 ovarian
  GI50: 1030 nM
  TGI: > 16500 nM
A498 renal
  GI50: 3500 nM
  TGI: 14600 nM
HCT-15 colon
  GI50: 749 nM
  TGI: > 16500 nM
M14 melanoma
  GI50: 509 nM
  TGI: > 16500 nM
PC-3 prostate
  GI50: 2740 nM
  TGI: > 16500 nM

Reference: PubChem BioAssay (NCI)
